Where a SMILES comes first, the peptide text is derived from it. The star is where a group is joined. Cbz = O=C(OCc1ccccc1)*
experiment: Inhibition of putative Endothelin-converting enzyme partially purified from rabbit lung membranes

Structure (SMILES)	IC50 [µM]
COC(=O)[C@H](Cc1c[nH]c2ccccc12)NC(=O)[C@H](CS)NC(=O)OCc1ccccc1 [(S)-2-[2-((R)-Benzyloxycarbonylamino)-3-mercapto-propionylamino]-3-(1H-indol-3-yl)-propionic acid methyl ester] (Cbz-Cys-Trp-OMe)	47
COC(=O)[C@H](CC(C)C)NC(=O)[C@@H](CS)NC(=O)OCc1ccccc1 [(S)-2-((S)-2-Benzyloxycarbonylamino-3-mercapto-propionylamino)-4-methyl-pentanoic acid methyl ester]	4
COC(=O)[C@H](Cc1c[nH]c2ccccc12)NC(=O)[C@H](CC(C)C)NC(=O)[C@H](CS)NC(=O)OCc1ccccc1 [2-[(S)-2-((R)-2-Benzyloxycarbonylamino-3-mercapto-propionylamino)-4-methyl-pentanoylamino]-3-(1H-indol-3-yl)-propionic acid (S)-methyl ester] (Cbz-Cys-Leu-Trp-OMe)	31
O=C(N[C@@H](CS)C(=O)N[C@@H](Cc1c[nH]c2ccccc12)C(=O)O)OCc1ccccc1 [(S)-2-((R)-2-Benzyloxycarbonylamino-3-mercapto-propionylamino)-3-(1H-indol-3-yl)-propionic acid] (Cbz-Cys-Trp-OH)	30
CC(C)CC(C(=O)NO)C(=O)N[C@@H](Cc1c[nH]c2ccccc12)C(=O)O (stereo partly drawn) [(S)-2-(2-Hydroxycarbamoyl-4-methyl-pentanoylamino)-3-(1H-indol-3-yl)-propionic acid]	24
